According to US7713926B2, “Method of producing partial peptide of enolase protein from Plasmodium falciparum” (National University Corporation Gunma University, priority 2004, dated 2010):

System: antibodies existing in sera from Plasmodium falciparum malaria patients and non-infected individuals
Experiment: Fluorescent ELISA of human sera on plate-fixed peptide compound (antibody level)
Assay type: binding
Settings: peptide fixed on plastic plate as antigen
Method: An antigen solution was prepared by dissolving 500 μg of the peptide compound (SEQ ID NO: 13) synthesized in Example 10 in 100 μl of dimethyl sulfoxide and by subsequently adding 1900 μl of a 0.05 M carbonate buffer (pH 9.6). The prepared antigen solution was dispensed by […] in each of […] on a plastic plate for fixation of the peptide compound.
The sera collected from Plasmodium falciparum malaria patients under informed consent at hospitals in Japan were used as subject sera, and the sera collected from non-infected individuals under informed consent in Japan were used as control sera. The subject sera and the control sera were individually added to the wells on the plastic plate to allow the antibodies existing in the respective sera to react with the peptide compound (SEQ ID NO: 13).
After removal of the serum, an enzyme-labeled secondary antibody against human immunoglobulin was added to each well for the immunological reaction. […] The measured antibody levels were expressed by relative fluorescence unit (RFU values).
FIG. 7 is a graph showing antibody levels of sera (1-7) from Plasmodium falciparum-infected patients and those of sera (8-12) from non-infected individuals (for the purpose of comparison) measured by the fluorescent ELISA method with the synthesized peptide compound (SEQ ID NO: 13). […]

Substance: H-Glu-Glu-Glu-Glu-Ala-Ser-Glu-Phe-Tyr-Asn-Ser-Glu-Asn-Lys-Thr-Tyr-Asp-Leu-Asp-Phe-Lys-Thr-Pro-Asn-Asn-Asp-Gly-Gly-OH (H-EEEEASEFYNSENKTYDLDFKTPNNDGG-OH) [SEQ ID NO: 13, partial peptide of enolase from Plasmodium falciparum, used as ELISA antigen]
- average antibody level of the non-infected individuals (control sera (8-12) from non-infected individuals, same fluorescent ELISA): 67 RFU
- average antibody level of the malaria patients (sera (1-7) from Plasmodium falciparum-infected patients, enzyme-labeled secondary antibody against human immunoglobulin, 4-methylumbelliferyl phosphate): 181 RFU
